The values that follow come from patent publication US6468476B1, “Methods for using-co-regulated genesets to enhance detection and classification of gene expression patterns” (Rosetta Inpharmatics, Inc., priority 1998, dated 2002).

This test has as its system genesets (calcineurin-mediated, Gcn4-mediated). Briefly: Response profiles projected onto genesets defined by cluster analysis of 34 experiments. It is filed as cell-based, Saccharomyces cerevisiae. To be noted: HU at 3.1 mM. The method, then:
Yeast (Saccharomyces cerevisiae, Strain YPH499, see, Sikorski and Hieter, 1989, A system of shuttle vectors and yeast host strains designated for efficient manipulation of DNA in Saccharomyces cerevisiae, Genetics 122:19-27) cells were grown in YAPD at 30° C. to an OD600 of 1.0 (±0.2), and total RNA prepared by breaking cells in phenol/chloroform and 0.1% SDS by standard procedures (Ausubel et al., 1995, Current Protocols in Molecular Biology, Greene Publishing and Wiley-Interscience, New York, Ch. 13). Poly(A)^+ RNA was selected by affinity chromatography on oligo-dT cellulose (New England Biolabs) essentially as described in Sambrook et al. (Molecular Cloning—A Laboratory Manual (2nd Ed.), Vol. 1, Cold Spring Harbor Laboratory, Cold Spring Harbor, N.Y., 1989). First strand cDNA synthesis was carried out with 2 μg poly(A)^+ RNA and SuperScript™ II reverse transcriptase (Gibco-BRL) according to the manufacturer's instructions with the following modifications. […]
Fluorescently-labeled cDNAs (2-6 μg) are resuspended in 4×SSC plus 1 μg/μl tRNA as carrier and filtered using […] filters (Millipore, Bedford, Mass.). […] Microarrays are scanned with a fluorescence laser-scanning device as previously described (Schena et al., 1995, Science 270:467-470; Schena et al., 1995, Proc. Natl. Acad. Sci. USA 93:[…]) and the results (including the positions of perturbations) are recorded. […]

Turning to `NC(=O)NO` [HU, Hydroxyurea], the Projected profile result was “very weak”.
